Patent US10695337B2, “Piperidin-4-yl azetidine derivatives as JAK1 inhibitors” (Incyte Corporation, priority 2010, dated 2020)

Target: human JAK1 (a.a. 837-1142)
Test: In vitro JAK kinase assay (HTRF, phosphorylation of a biotinylated peptide), JAK1
Assay type: biochemical
Conditions: measured at 1 mM ATP; JAK2 IC50 / JAK1 IC50
Method in brief: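 N-terminal His-tagged catalytic domains, baculovirus-expressed in insect cells, phosphorylated a biotinylated peptide for 1 hr at room temperature. EDTA stop was followed by SA-APC and Eu-Py20 antibody for 40 minutes, with phosphopeptide read by HTRF.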

SMILES | IC50 Ratio JAK2/JAK1
N#CCC1(n2cc(-c3c(F)cnc4[nH]ccc34)cn2)CN(C2CCN(C(=O)C3CCC(F)(F)CC3)CC2)C1 [Example 327, {1-{1-[(4,4-difluorocyclohexyl)carbonyl]piperidin-4-yl}-3-[4-(5-fluoro-1H-pyrrolo[2,3-b]pyridine-4-yl)-1H-pyrazol-1-yl]azetidin-3-yl}acetonitrile] | 4.1
N#CCC1(n2cc(-c3c(F)cnc4[nH]ccc34)cn2)CN(C2CCN(C(=O)Nc3ncccc3C(F)(F)F)CC2)C1 [Example 329, 4-{3-(cyanomethyl)-3-[4-(5-fluoro-1H-pyrrolo[2,3-b]pyridin-4-yl)-1H-pyrazol-1-yl]azetidin-1-yl}-N-[3-(trifluoromethyl)pyridin-2-yl]piperidine-1-carboxamide] | 4.5
N#CCC1(n2cc(-c3c(F)cnc4[nH]ccc34)cn2)CN(C2CCN(C(=O)Nc3cnccc3C(F)(F)F)CC2)C1 [Example 330, 4-{3-(cyanomethyl)-3-[4-(5-fluoro-1H-pyrrolo[2,3-b]pyridin-4-yl)-1H-pyrazol-1-yl]azetidin-1-yl}-N-[4-(trifluoromethyl)pyridin-3-yl]piperidine-1-carboxamide] | 6.7
N#CCC1(n2cc(-c3c(C#N)cnc4[nH]ccc34)cn2)CN(C2CCN(C(=O)c3cc(F)cc(C#N)c3)CC2)C1 [Example 333, 4-{1-[1-[1-(3-cyano-5-fluorobenzoyl)piperidin-4-yl]-3-(cyanomethyl)azetidin-3-yl]-1H-pyrazol-4-yl}-1H-pyrrolo[2,3-b]pyridine-5-carbonitrile] | 8.8
N#CCC1(n2cc(-c3c(C#N)cnc4[nH]ccc34)cn2)CN(C2CCN(C(=O)c3ccc(C#N)c(F)c3)CC2)C1 [Example 334, 4-{1-[1-[1-(4-cyano-3-fluorobenzoyl)piperidin-4-yl]-3-(cyanomethyl)azetidin-3-yl]-1H-pyrazol-4-yl}-1H-pyrrolo[2,3-b]pyridine-5-carbonitrile] | 4.3
N#CCC1(n2cc(-c3c(C#N)cnc4[nH]ccc34)cn2)CN(C2CCN(C(=O)c3cc(Br)ccc3Br)CC2)C1 [Example 335] | 2.4
N#CCC1(n2cc(-c3c(C#N)cnc4[nH]ccc34)cn2)CN(C2CCN(C(=O)c3cc(Br)cc(Br)c3)CC2)C1 [Example 336] | 2.9
N#CCC1(n2cc(-c3c(C#N)cnc4[nH]ccc34)cn2)CN(C2CCN(C(=O)c3cc(C#N)ccc3C#N)CC2)C1 [Example 337, 2-[(4-{3-(cyanomethyl)-3-[4-(5-cyano-1H-pyrrolo[2,3-b]pyridin-4-yl)-1H-pyrazol-1-yl]azetidin-1-yl}piperidin-1-yl)carbonyl]terephthalonitrile] | 6.0
N#CCC1(n2cc(-c3c(C#N)cnc4[nH]ccc34)cn2)CN(C2CCN(C(=O)c3cc(C#N)cc(C#N)c3)CC2)C1 [Example 338, 5-[(4-{3-(cyanomethyl)-3-[4-(5-cyano-1H-pyrrolo[2,3-b]pyridin-4-yl)-1H-pyrazol-1-yl]azetidin-1-yl}piperidin-1-yl)carbonyl]isophthalonitrile] | 7.4
N#CCC1(n2cc(-c3c(C#N)cnc4[nH]ccc34)cn2)CN(C2CCN(C(=O)c3c(F)cc(C#N)cc3F)CC2)C1 [Example 340, 4-{1-[1-[1-(4-cyano-2,6-difluorobenzoyl)piperidin-4-yl]-3-(cyanomethyl)azetidin-3-yl]-1H-pyrazol-4-yl}-1H-pyrrolo[2,3-b]pyridine-5-carbonitrile] | 1.4
N#CCC1(n2cc(-c3c(C#N)cnc4[nH]ccc34)cn2)CN(C2CCN(C(=O)c3cc(C(F)(F)F)ncc3Cl)CC2)C1 [Example 341, 4-{1-[1-{1-[5-chloro-2-(trifluoromethyl)isonicotinoyl]piperidin-4-yl}-3-(cyanomethyl)azetidin-3-yl]-1H-pyrazol-4-yl}-1H-pyrrolo[2,3-b]pyridine-5-carbonitrile] | 3.2
N#CCC1(n2cc(-c3ncnc4[nH]ccc34)cn2)CN(C2CCN(C(=O)c3cc(C(F)(F)F)ncc3Cl)CC2)C1 [Example 342, {1-{1-[5-Chloro-2-(trifluoromethyl)isonicotinoyl]piperidin-4-yl}-3-[4-(7H-pyrrolo[2,3-d]pyrimidin-4-yl)-1H-pyrazol-1-yl]azetidin-3-yl}acetonitrile] | 5.7
N#CCC1(n2cc(-c3ncnc4[nH]ccc34)cn2)CN(C2CCN(C(=O)c3cc(C(F)(F)F)ncc3F)CC2)C1 [Example 343, {1-{1-[5-Fluoro-2-(trifluoromethyl)isonicotinoyl]piperidin-4-yl}-3[4-(7H-pyrrolo[2,3-d]pyrimidin-4-yl)-1H-pyrazol-1-yl]azetidin-3-yl}acetonitrile] | 5.5
N#CCC1(n2ccc(-c3ncnc4[nH]ccc34)c2)CN(C2CCN(C(=O)c3nc(C(F)(F)F)cs3)CC2)C1 [Example 346, [3-[3-(7H-Pyrrolo[2,3-d]pyrimidin-4-yl)-1H-pyrrol-1-yl]-1-(1-{[4-(trifluoromethyl)-1,3-thiazol-2-yl]carbonyl}piperidin-4-yl)azetidin-3-yl]acetonitrile] | 5.9
N#CCC1(n2ccc(-c3ncnc4[nH]ccc34)c2)CN(C2CCN(C(=O)c3cnc(C(F)(F)F)cn3)CC2)C1 [Example 347, [3-[3-(7H-Pyrrolo[2,3-d]pyrimidin-4-yl)-1H-pyrrol-1-yl]-1-(1-{[5-(trifluoromethyl)pyrazin-2-yl]carbonyl}piperidin-4-yl)azetidin-3-yl]acetonitrile] | 2.7
CS(=O)(=O)N1CCC(N2CC(CC#N)(n3ccc(-c4ncnc5[nH]ccc45)c3)C2)CC1 [Example 348, {1-[1-(Methylsulfonyl)piperidin-4-yl]-3-[3-(7H-pyrrolo[2,3-d]pyrimidin-4-yl)-1H-pyrrol-1-yl]azetidin-3-yl}acetonitrile] | 3.2
N#CCC1(n2cc(-c3ccnc4[nH]ccc34)cn2)CN(C2CCN(C(=O)c3nc(C(F)(F)F)cs3)CC2)C1 [Example 350, [3-[4-(1H-Pyrrolo[2,3-b]pyridin-4-yl)-1H-pyrazol-1-yl]-1-(1-{[4-(trifluoromethyl)-1,3-thiazol-2-yl]carbonyl}piperidin-4-yl)azetidin-3-yl]acetonitrile] | 15.0
CS(=O)(=O)N1CCC(N2CC(CC#N)(n3cc(-c4ccnc5[nH]ccc45)cn3)C2)CC1 [Example 351, {1-[1-(Methylsulfonyl)piperidin-4-yl]-3-[4-(1H-pyrrolo[2,3-b]pyridin-4-yl)-1H-pyrazol-1-yl]azetidin-3-yl}acetonitrile] | 3.8
N#CCC1(n2cc(-c3c(F)cnc4[nH]ccc34)cn2)CN(C2CCN(C(=O)c3ccnc(C(F)(F)F)n3)CC2)C1 [Example 353, [3-[4-(5-Fluoro-1H-pyrrolo[2,3-b]pyridin-4-yl)-1H-pyrazol-1-yl]-1-(1-{[2-(trifluoromethyl)pyrimidin-4-yl]carbonyl}piperidin-4-yl)azetidin-3-yl]acetonitrile] | 5.0
